This note sets out measurements from US20230295145A1, “PYRROLIDINE DERIVATIVES AND METHODS OF USE” (Genentech, Inc., priority 2020, published 2023).

Data set [1] has as its system HCC366. The experiment in a line: Cell Viability Assay (CellTiter-Glo). The format is cell-based. The note with it: 10 μM, 5 days. On the technique in general: Cellular ATP, detected with luciferase, serves as a proxy for viable cell number.
Protocol: (§1) Cell lines were cultured in RPMI-1640, 5% fetal bovine serum, and 2 mM glutamine in a humidified incubator maintained at 37° C. with 5% CO2. Cells were assessed with a Vi-CELL Cell Viability Analyzer (Beckman Coulter; Brea, CA); viability of at least 90% was required for screening. A Multidropä Combi Reagent Dispenser (Thermo Scientific; Waltham, MA) was used to plate cells into Falcons^â 384-well, black, clear-bottom plates (Catalog No. 353962; Corning; Tewksbury, MA) using seeding densities previous determined to achieve approximately 80% confluence at the final time point of the assay. The compounds were prepared at 1000× in advance using an Echo 555 liquid handler (Labcyte; Sunnyvale, CA) and stored in −80° C. until the day of compound addition. On the following day, cells were treated with compounds at final assay concentration 1 uM and 10 uM using a Bravo Automated Liquid-Handling Platform (Agilent; Santa Clara, CA). After 5 days, 25 mL CellTiter-Glo^â reagent was added using a MultiFloä Microplate Dispenser (BioTek; Winooski, VT). Cell lysis was induced by mixing for 30 minutes on an orbital shaker; plates were then incubated at room temperature for 10 minutes to stabilize the luminescent signal. Luminescence was read by a 2104 EnVision^â Multilabel Plate Reader (PerkinElmer; Waltham, MA).
(§2) The data was processed using Genedata Screener^â, Version 15 (Genedata; Basel, Switzerland) to assess compound effects on viability. Compound treated wells were normalized to the median value of 14 DMSO control wells on the same 384 well plate.
Data set [2] addresses T1, VHL (Homo sapiens, UniProt P40337).
T1 construct: expressed in transfected cells
The data set can be described thus: VHL HEK-293 BRET Assay (VHL NanoBRET Target Engagement Assay). The format is cell-based. The note with it: IC50 values measured in the presence of digitonin; HEK 293 RT VHL-NanoLuc stable cells; read-out: IC50 + Digi (μM)*. On the technique in general: Bioluminescence resonance energy transfer reports proximity on the nanometre scale.

Data set [3] deals with T1, VHL. Described as above. The data set is classed as cell-based. The note with it: HEK 293 RT VHL-NanoLuc stable cells; read-out: IC50. How it is done: The VHL NanoBRET™ Target Engagement Assay analyzes the apparent affinity of test compounds for VHL in cells by competitive displacement of a VHL NanoBRET™ tracer reversibly bound to a NanoLuc® VHL fusion protein stably expressed in the cells.
Test compounds were transferred to the assay plate (384 Well White Non-Binding Corning Assay Plates (Corning-3574)) using an Echo 555 Liquid Handler (Labcyte) in 2.5 nL increments and, as appropriate, intermediate stock concentrations of compounds, in order to prepare a titration series. 50 nL of control compound (10 mM; parental unlabeled VHL antagonist; see structure below) and 50 nL of DMSO (negative control) were dispensed into the appropriate control wells. DMSO was backfilled to a final volume of 50 nL as required. 50 nl per well of 1 mM VHL NanoBRET™ Tracer in DMSO (NanoBRET™ Tracer-PEG2-590 (see structure below)) was transferred into each well using an Echo 555 (ultimately yielding a final concentration of 1 uM). HEK 293 RT VHL-NanoLuc® stable cells were cultured in DMEM High Glucose with Pyruvate, 10% fetal bovine serum, 2 mg/mL of Geneticin Selective Antibiotic (50 mg/mL) and 2 mM HEPES (1 M). Cells were seeded in Opti-MEM (Life Technologies-11058-021), 1.7×10^5 cells/mL, 40 μl per well into the assay plate, centrifuged at 500 rpm for 30 seconds and incubated for 2 hours. Max Signal control wells consisted of DMSO only treated wells. Minimum Signal control wells contained of 10 uM parental unlabeled VHL antagonist (control compound—see structure below). 3× Complete Substrate plus Inhibitor Solution was prepared in Opti-MEM (consists of a 1:166 dilution of NanoBRET™ Nano-Glo® Substrate plus a 1:500 dilution of Extracellular NanoLuc® Inhibitor in Opti-MEM), and 20 ul was dispensed into each well of the 384-well plate and centrifuged at 1000 rpm for 1 minute, then incubated for 2 minutes at room temperature. Background Signal control wells were prepared without tracer for background correction steps.
Plates were read using a PerkinElmer Envision Reader (model 2104-0020) equipped with Luminescence option (Mirror: BRET2 Enh (PE Barcode 659), Emission Filter: Omega 610LP (Barcode 504), 2nd Emission Filter: Umbelliferone 460 (Barcode 207), Measurement height: 6.5 mm, Measurement time: 1 s). The raw BRET ratio values were calculated by dividing the acceptor emission value (610 nm) by the donor emission value (460 nm) for each sample. To correct for background, the BRET ratio in the absence of tracer (average of no-tracer control samples) was subtracted from the BRET ratio of each sample. Raw BRET units were converted to milliBRET units (mBU) by multiplying each raw BRET value by 1,000. The normalized NanoBRET™ signal was calculated relative to the Max Signal control wells (DMSO treated control wells) and the Minimum Signal control wells. Percentage inhibition was calculated relative to the Minimum Signal control and Maximum Signal control wells. IC50 values were derived by four parameter curve fitting using the Robust method.

In data set [4] the test system is NCI-H2030. The experiment in a line: Cell Viability Assay (CellTiter-Glo). The data set is classed as cell-based. The note with it: 5 days.
Protocol: as §1, §2
Data set [5] has as its system PANC-1. The data set can be described thus: Cell Viability Assay (CellTiter-Glo). The format is cell-based. The note with it: 10 μM, 5 days.
Protocol: as §1, §2
The test system of data set [6] is NCI-H23. The experiment in a line: Cell Viability Assay (CellTiter-Glo). The format is cell-based. The note with it: 5 days.
Protocol: as §1, §2
The test system of data set [7] is CAL-120. The data set can be described thus: Cell Viability Assay (CellTiter-Glo). The note with it: 5 days.
Protocol: as §1, §2
Data set [8] has as its system ABC-1. The data set can be described thus: Cell Viability Assay (CellTiter-Glo). The format is cell-based. The note with it: 10 μM, 5 days.
Protocol: as §1, §2

Like-named read-outs stand apart in the source and are kept apart here.

T1 sequence (P40337 whole entry): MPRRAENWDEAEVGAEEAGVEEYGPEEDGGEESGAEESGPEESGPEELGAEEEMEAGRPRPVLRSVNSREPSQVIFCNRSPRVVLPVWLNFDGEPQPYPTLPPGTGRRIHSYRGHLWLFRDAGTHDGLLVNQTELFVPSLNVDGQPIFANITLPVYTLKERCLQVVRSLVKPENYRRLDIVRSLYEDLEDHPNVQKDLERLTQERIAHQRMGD

`CC(C)(C)[C@@H](C(=O)N1C[C@H](O)C[C@H]1C(=O)N[C@H]1CC[C@H](c2nc3ccccc3o2)CC1)n1cc(C2CC2)nn1` [Compound 106, (2S,4R)-N-[4-(1,3-benzoxazol-2-yl)cyclohexyl]-1-[(2S)-2-(4-cyclopropyltriazol-1-yl)-3,3-dimethyl-butanoyl]-4-hydroxy-pyrrolidine-2-carboxamide]: the “Normalized viability % DMSO” value in data set [1] is 6.0 % DMSO. In addition, the IC50 in data set [2] is 4.41 µM; in data set [3] it was 3.37 µM.

Take `CC(C)(C)[C@@H](C(=O)N1C[C@H](O)C[C@H]1C(=O)NC1CC12CCc1cc(Br)ccc12)n1cc(C2CC2)nn1` (stereo partly drawn) [Compound 266, (2S,4R)-N-(5′-bromospiro[cyclopropane-2,1′-indane]-1-yl)-1-[(2S)-2-(4-cyclopropyltriazol-1-yl)-3,3-dimethyl-butanoyl]-4-hydroxy-pyrrolidine-2-carboxamide]: the “Normalized viability % DMSO” value is given as 31.8 % DMSO in data set [4] (10 μM), 27.6 % DMSO in data set [5], 37.6 % DMSO in data set [6] (10 μM) and 46.4 % DMSO in data set [7] (10 μM). The 50% inhibitory concentration (IC50) in data set [2] was determined as 9.5 µM; in data set [3], 3.69 µM.

Regarding `CC(C)(C)[C@@H](C(=O)N1C[C@H](O)C[C@H]1C(=O)NC1CN(c2ccncc2)C1)n1cc(C2CC2)nn1` [Compound 445, (2S,4R)-1-[(2S)-2-(4-cyclopropyltriazol-1-yl)-3,3-dimethyl-butanoyl]-4-hydroxy-N-[1-(4-pyridyl)azetidin-3-yl]pyrrolidine-2-carboxamide], the “Normalized viability % DMSO” value in data set [1] was determined as 5.2 % DMSO. In addition, the results for the IC50 in data set [2] and in data set [3] were 22.3 µM and 26.7 µM, respectively.

Consider `Cc1ccc(N2CCC[C@H]2CNC(=O)[C@@H]2C[C@@H](O)CN2C(=O)[C@@H](n2cc(C3CC3)nn2)C(C)(C)C)cc1` [Compound 462, (2S,4R)-1-[(2S)-2-(4-cyclopropyltriazol-1-yl)-3,3-dimethyl-butanoyl]-4-hydroxy-N-[[(2S)-1-(p-tolyl)pyrrolidin-2-yl]methyl]pyrrolidine-2-carboxamide], for which, in data set [1], the “Normalized viability % DMSO” value is on record as 11.3 % DMSO. The IC50 in data set [2] was 5.35 µM; in data set [3] it was 2.82 µM.

Turning to `CC(C)(C)[C@@H](C(=O)N1C[C@H](O)C[C@H]1C(=O)NC1CCN(c2ccc(Cl)c(Cl)c2)C1)n1cc(C2CC2)nn1` (stereo partly drawn) [Compound 463, (2S,4R)-1-[(2S)-2-(4-cyclopropyltriazol-1-yl)-3,3-dimethyl-butanoyl]-N-[1-(3,4-dichlorophenyl)pyrrolidin-3-yl]-4-hydroxy-pyrrolidine-2-carboxamide], the “Normalized viability % DMSO” value in data set [5] came out at 35.6 % DMSO. The IC50 in data set [2] was 4.86 µM; in data set [3] it was 3.68 µM.

In the case of `CCC(CNC(=O)[C@@H]1C[C@@H](O)CN1C(=O)[C@@H](n1cc(C2CC2)nn1)C(C)(C)C)Oc1cccc(C(F)(F)F)c1` (stereo partly drawn) [Compound 493, (2S,4R)-1-[(2S)-2-(4-cyclopropyltriazol-1-yl)-3,3-dimethyl-butanoyl]-4-hydroxy-N-[2-[3-(trifluoromethyl)phenoxy]butyl]pyrrolidine-2-carboxamide], in data set [5], the “Normalized viability % DMSO” value turned out to be 51.8 % DMSO. Further, the values for the 50% inhibitory concentration (IC50) in data set [2] and in data set [3] were 5.56 µM and 3.68 µM, respectively.

`CC(Cc1ccc(Br)cc1F)NC(=O)[C@@H]1C[C@@H](O)CN1C(=O)[C@@H](n1cc(C2CC2)nn1)C(C)(C)C` (stereo partly drawn) [Compound 556, (2S,4R)-N-[2-(4-bromo-2-fluoro-phenyl)-1-methyl-ethyl]-1-[(2S)-2-(4-cyclopropyltriazol-1-yl)-3,3-dimethyl-butanoyl]-4-hydroxy-pyrrolidine-2-carboxamide]: the “Normalized viability % DMSO” value in data set [4] (10 μM) turned out to be 50.4 % DMSO. Also, the results for the concentration for half-maximal inhibition (IC50) in data set [2] and in data set [3] were 2.52 µM and 0.55 µM, respectively.

Regarding `CC(C)(NC(=O)[C@@H]1C[C@@H](O)CN1C(=O)[C@@H](n1cc(C2CC2)nn1)C(C)(C)C)c1cccc(C#N)c1` [Compound 561, (2S,4R)-N-[1-(3-cyanophenyl)-1-methyl-ethyl]-1-[(2S)-2-(4-cyclopropyltriazol-1-yl)-3,3-dimethyl-butanoyl]-4-hydroxy-pyrrolidine-2-carboxamide], in data set [1], the “Normalized viability % DMSO” value is 12.5 % DMSO. In addition, the IC50 in data set [2] was 1.64 µM; in data set [3], 0.928 µM.

On to `CCC(NC(=O)[C@@H]1C[C@@H](O)CN1C(=O)[C@@H](n1cc(C2CC2)nn1)C(C)(C)C)c1noc(-c2cccc(Br)c2)n1` (stereo partly drawn) [Compound 617, (2S,4R)-N-[1-[5-(3-bromophenyl)-1,2,4-oxadiazol-3-yl]propyl]-1-[(2S)-2-(4-cyclopropyltriazol-1-yl)-3,3-dimethyl-butanoyl]-4-hydroxy-pyrrolidine-2-carboxamide], for which the “Normalized viability % DMSO” value in data set [5] was determined as 69.8 % DMSO. In addition, the values for the half-maximal inhibitory concentration (IC50) in data set [2] and in data set [3] were 1.35 µM and 0.829 µM, respectively.

For the molecule `CNC(=O)[C@@H]1C[C@@H](O)CN1C(=O)[C@@H](n1cc(COc2ccccc2F)nn1)C(C)(C)C` [Compound 729, (2S,4R)-1-[(2S)-2-[4-[(2-fluorophenoxy)methyl]triazol-1-yl]-3,3-dimethyl-butanoyl]-4-hydroxy-N-methyl-pyrrolidine-2-carboxamide], the “Normalized viability % DMSO” value in data set [6] (1 μM) stood at 7.4 % DMSO; in data set [8], 35.8 % DMSO. Also, the IC50 in data set [2] was 1.48 µM; in data set [3], 0.96 µM.

Turning to `CNC(=O)[C@@H]1C[C@@H](O)CN1C(=O)[C@@H](n1cc(CN(C)c2ccccc2)nn1)C(C)(C)C` [Compound 842, (2S,4R)-1-[(2S)-3,3-dimethyl-2-[4-[(N-methylanilino)methyl]triazol-1-yl]butanoyl]-4-hydroxy-N-methyl-pyrrolidine-2-carboxamide], the “Normalized viability % DMSO” value in data set [7] (1 μM) came to 18.5 % DMSO.

For the molecule `CNC(=O)[C@@H]1C[C@@H](O)CN1C(=O)[C@@H](n1cc(-c2cccc(C(F)(F)F)c2)nn1)C(C)(C)C` [Compound 974, (2S,4R)-1-[(2S)-3,3-dimethyl-2-[4-[3-(trifluoromethyl)phenyl]triazol-1-yl]butanoyl]-4-hydroxy-N-methyl-pyrrolidine-2-carboxamide], the “Normalized viability % DMSO” value in data set [4] (1 μM) is reported as 15.3 % DMSO.

Consider `CNC(=O)[C@@H]1C[C@@H](O)CN1C(=O)[C@@H](n1cc(CN2CCC(C(=O)OC)CC2)nn1)C(C)(C)C` [Compound 1059, methyl 1-[[1-[(1S)-1-[(2S,4R)-4-hydroxy-2-(methylcarbamoyl)pyrrolidine-1-carbonyl]-2,2-dimethyl-propyl]triazol-4-yl]methyl]piperidine-4-carboxylate], for which the “Normalized viability % DMSO” value stood at 12.7 % DMSO in data set [4] (10 μM) and 18.1 % DMSO in data set [7] (10 μM). The half-inhibitory concentration (IC50) in data set [2] turned out to be 7.47 µM; in data set [3] it was 18.2 µM.

As a reminder, the IC50 is the concentration at which inhibition is half-maximal.
